Assay results from patent US10117871B2, “3-hydroxypyrimidine-2,4-dione-5-carboxamides as potent inhibitors of HIV” (Regents of the University of Minnesota, priority 2015, dated 2018).
Read-outs that look alike come from different tables or passages of the source.

Columns and labels:
HIV-1IIIB = assay: HIV-1 cytoprotection (CPE reduction) antiviral assay; assay type: cell-based; details: for inhibition at 10 µM: read-out: CPE reduction %; for antiviral activity, in words: single concentration 10 μM, CPE assay
Protocol: (§1) The antiviral activity of newly synthesized analogues of chemotype 7 was evaluated against HIV-1IIIB in CEM-SS cells using an assay based on viral cytopathic effect (CPE). In this assay, the reduction of CPE was used to indicate the antiviral activity of a compound.
Briefly virus and cells were mixed in the presence of test compound and incubated for 6 days. […] Each assay plate contained cell control wells (cells only), virus control wells (cells plus virus), compound toxicity control wells (cells plus compound only), compound colorimetric control wells (compound only) as well as experimental wells (compound plus cells plus virus). Cytoprotection and compound cytotoxicity were assessed by MTS (CellTiter® 96 Reagent, Promega, Madison Wis.) and the EC50 (concentration inhibiting virus replication by 50%), CC50 (concentration resulting in 50% cell death) and a calculated TI (therapeutic index CC50/EC50) were provided. Each assay included AZT as a positive control.

CEM-SS cells = assay: Compound cytotoxicity (MTS) in the HIV cytoprotection assay; assay type: cell-based; details: for Cell viability %: 10 μM, CEM-SS cells; for CC50: Concentration resulting in 50% cell death
Protocol: as §1
Briefly virus and cells were mixed in the presence of test compound and incubated for 6 days. […] Each assay plate contained cell control wells (cells only), virus control wells (cells plus virus), compound toxicity control wells (cells plus compound only), compound colorimetric control wells (compound only) as well as experimental wells (compound plus cells plus virus). […] Each assay included AZT as a positive control.

HIV-1 integrase = target: T1, HIV-1 integrase (Human immunodeficiency virus type 1 group M subtype B, UniProt P04585); assay: HIV-1 integrase strand transfer (INST) assay; assay type: biochemical
T1 construct: HIV integrase was expressed and purified as previously reported; made in house; host or cells: Escherichia coli
Protocol: HIV integrase was expressed and purified as previously reported.^43 Inhibition assays were performed using a modified protocol of a reported method.^43 Briefly, 2.1 μL of compound suspended in DMSO was placed in duplicate into a Black 96 well non-binding plate (coming 3991). Compounds were plated in duplicate to a final concentration of 0.13-100 μM. To each well of the plate 186.9 μL of reaction mixture without DNA substrate was added (10 mM HEPES pH 7.5, 10% glycerol w/v, 10 mM MnCl2, 1 mM DTT, 1 μM integrase). The enzyme was incubated with inhibitor for 10 min at 25° C. after which the reaction was initiated by the addition of 21 μL of 500 nM oligo (5′ biotin […] annealed with […] 3′ Cy5). Reactions were incubated at 37° C. for 30 min and then quenched by the addition of 5.2 μL 500 mM EDTA. Each reaction was moved (200 μL) to a MultiScreen HTS PCR plate (Millipore MSSLBPC10) containing 20 μL streptavidin agarose beads (Life Technologies S951) and incubated with shaking for 30 min. A vacuum manifold was used to remove the reaction mixture and the beads were similarly washed 3 times with wash buffer (0.05% SDS, 1 mM EDTA in PBS). The plates were further washed 3 times with 200 μL 50 mM NaOH to denature DNA not covalently linked to the biotin modification. For each denaturation step the plate was incubated with shaking at 25° C. for 5 min and the NaOH was removed by centrifugation at 1000 g for 1 min. The reaction products were eluted from the beads by the addition of 150 μL formamide. The plate was incubated at 25° C. for 10 min and read directly at 635/675 in a SpectraMax i3 plate reader (Molecular Devices). Expression and purification of the recombinant IN in Escherichia coli were performed as previously reported^39, 44 with addition of 10% glycerol to all buffers. Preparation of oligonucleotide substrates has been described.^45 Integrase reactions were performed in 10 μL with 400 nM of recombinant IN, 20 nM of 5′-end [^32P]-labeled oligonucleotide substrate and inhibitors at various concentrations. Solutions of 10% DMSO without inhibitors were used as controls. Reactions were incubated at 37° C. (60 minutes) in buffer containing 50 mM MOPS, pH 7.2, 7.5 mM MgCl2, and 14.3 mM 2-mercaptoethanol. Reactions were stopped by addition of 10 μL of loading dye (10 mM EDTA, 98% deionized formamide, 0.025% xylene cyanol and 0.025% bromophenol blue). Reactions were then subjected to electrophoresis in 20% polyacrylamide-7 M urea gels. Gels were dried and reaction products were visualized and quantitated with a Typhoon 8600 (GE Healthcare, Little Chalfont, Buckinghamshire, UK). Densitometric analyses were performed using ImageQuant from Molecular Dynamics Inc. The concentrations at which enzyme activity was reduced by 50% (IC50) were determined using “Prism” software (GraphPad Software, San Diego, Calif.) for nonlinear regression to fit dose-response data to logistic curve models.

[1] = Human immunodeficiency virus 1, CEM-SS
[2] = Human immunodeficiency virus 1, summary of Table 2, read-out: EC50
[3] = Human immunodeficiency virus 1, 10 μM, HIV-1IIIB in CEM-SS cells

Work on CCNc1[nH]c(=O)n(O)c(=O)c1C(=O)NCc1ccc(F)cc1 [Compound 7-xvi, N-(4-Fluorobenzyl)-1-(hydroxy)-4-(ethylamino)-1,2,3,6-tetrahydro-2,6-dioxopyrimidine-5-carboxamide] yielded an EC50 (HIV-1IIIB; Human immunodeficiency virus 1) of 33 nM, an inhibition at 10 µM (HIV-1IIIB; [1]) of 100% and an EC50 (HIV-1IIIB; [2]) of 15 to 61 nM. The Cell viability % (CEM-SS cells) was 99%, the CC50 (CEM-SS cells) was 19000 nM and the IC50 (HIV-1 integrase; read-out: IC50 (ST)) was 21 to 77 nM. For the same molecule, the IC50 (HIV-1 integrase; read-out: INST IC50) was 49 ± 4 nM.

In the case of CCCNc1[nH]c(=O)n(O)c(=O)c1C(=O)NCc1ccccc1 [Compound 7-vii, N-Benzyl-1-(hydroxy)-1,2,3,6-tetrahydro-2,6-dioxo-4-(propylamino)pyrimidine-5-carboxamide], the inhibition at 10 µM (HIV-1IIIB; [3]) is reported as 100%, the Cell viability % (CEM-SS cells) is reported as 97% and the IC50 (HIV-1 integrase; read-out: INST IC50) is reported as 66 ± 16 nM.

With CCNc1[nH]c(=O)n(O)c(=O)c1C(=O)NCc1ccc(F)c(F)c1 [Compound 7-xx, N-(3,4-Difluorobenzyl)-1-(hydroxy)-4-(ethylamino)-1,2,3,6-tetrahydro-2,6-dioxopyrimidine-5-carboxamide] the EC50 (HIV-1IIIB; Human immunodeficiency virus 1) was 49 nM, the inhibition at 10 µM (HIV-1IIIB; [1]) was 100% and the EC50 (HIV-1IIIB; [2]) was 15 to 61 nM. The Cell viability % (CEM-SS cells) was 100%, the CC50 (CEM-SS cells) was 21000 nM and the IC50 (HIV-1 integrase; read-out: IC50 (ST)) was 21 to 77 nM. For the same molecule, the IC50 (HIV-1 integrase; read-out: INST IC50) was 77 ± 11 nM.

For O=C(NCc1ccc(F)cc1)c1c2n(c(=O)n(O)c1=O)CCCN2 [Compound 17, N-(4-Fluorobenzyl)-7-(hydroxy)-2,3,4,6,7,8-hexahydro-6,8-dioxo-1H-pyrimido[1,6-a]pyrimidine-9-carboxamide], the IC50 (HIV-1 integrase; read-out: INST IC50) was 430 ± 130 nM.

CCNc1[nH]c(=O)n(O)c(=O)c1C(=O)Nc1ccccc1 [Compound 7-xxv, 1-(Hydroxy)-4-(ethylamino)-1,2,3,6-tetrahydro-2,6-dioxo-N-phenylpyrimidine-5-carboxamide] was tested, and the inhibition at 10 µM (HIV-1IIIB; [3]) was 11%, the “antiviral activity, in words” value (HIV-1IIIB) was “complete loss of activity” and the Cell viability % (CEM-SS cells) was 27%. It also gave an IC50 (HIV-1 integrase; read-out: INST IC50) of 35000 ± 17000 nM.

With CCNc1[nH]c(=O)n(O)c(=O)c1C(=O)NCCc1ccccc1 [Compound 7-xxvi, 1-(Hydroxy)-4-(ethylamino)-1,2,3,6-tetrahydro-2,6-dioxo-N-phenethylpyrimidine-5-carboxamide] the inhibition at 10 µM (HIV-1IIIB; [3]) was 99%, the “antiviral activity, in words” value (HIV-1IIIB) was “largely retained” and the Cell viability % (CEM-SS cells) was 87%. For the same molecule, the IC50 (HIV-1 integrase; read-out: INST IC50) was 100 ± 30 nM.

CCNc1[nH]c(=O)n(O)c(=O)c1C(=O)NCc1cc(F)ccc1Cl [Compound 7-xxi, N-(2-Chloro-5-fluorobenzyl)-1-(hydroxy)-4-(ethylamino)-1,2,3,6-tetrahydro-2,6-dioxopyrimidine-5-carboxamide] was tested, and the inhibition at 10 µM (HIV-1IIIB; [3]) was 62%, the Cell viability % (CEM-SS cells) was 73% and the IC50 (HIV-1 integrase; read-out: INST IC50) was 95 ± 19 nM.

With CCCNc1[nH]c(=O)n(O)c(=O)c1C(=O)NCc1cccc(Cl)c1F [Compound 7-xxviii, N-(3-Chloro-2-fluorobenzyl)-1-(hydroxy)-1,2,3,6-tetrahydro-2,6-dioxo-4-(propylamino)pyrimidine-5-carboxamide] the inhibition at 10 µM (HIV-1IIIB; [3]) was 33% and the Cell viability % (CEM-SS cells) was 48%.

With CNc1[nH]c(=O)n(O)c(=O)c1C(=O)NCc1ccccc1 [Compound 7-v, N-Benzyl-1-(hydroxy)-1,2,3,6-tetrahydro-4-(methylamino)-2,6 dioxopyrimidine-5-carboxamide] the EC50 (HIV-1IIIB; Human immunodeficiency virus 1) was 830 nM, the inhibition at 10 µM (HIV-1IIIB; [3]) was 100% and the Cell viability % (CEM-SS cells) was 98%. The CC50 (CEM-SS cells) was 58000 nM and the IC50 (HIV-1 integrase; read-out: INST IC50) was 80 ± 7 nM.

Molecule CCNc1[nH]c(=O)n(O)c(=O)c1C(=O)NCc1cccc(F)c1 [Compound 7-xv, N-(3-Fluorobenzyl)-1-(hydroxy)-4-(ethylamino)-1,2,3,6-tetrahydro-2,6-dioxopyrimidine-5-carboxamide] has an inhibition at 10 µM (HIV-1IIIB; [3]) of 100%, a Cell viability % (CEM-SS cells) of 90% and an IC50 (HIV-1 integrase; read-out: INST IC50) of 68 ± 7 nM.

Work on Nc1[nH]c(=O)n(O)c(=O)c1C(=O)NCc1ccccc1 [Compound 7-xi, 4-Amino-N-benzyl-1-(hydroxy)-1,2,3,6-tetrahydro-2,6-dioxopyrimidine-5-carboxamide] yielded an inhibition at 10 µM (HIV-1IIIB; [3]) of 99%, a Cell viability % (CEM-SS cells) of 100% and an IC50 (HIV-1 integrase; read-out: INST IC50) of 900 ± 290 nM.

With O=C(NCc1ccccc1)c1c(Nc2ccccc2)[nH]c(=O)n(O)c1=O [Compound 7-i, N-Benzyl-1-(hydroxy)-1,2,3,6-tetrahydro-2,6-dioxo-4-(phenylamino)pyrimidine-5-carboxamide] the inhibition at 10 µM (HIV-1IIIB; [1]) was 0% and the Cell viability % (CEM-SS cells) was 21%.

CNc1[nH]c(=O)n(O)c(=O)c1C(=O)NCc1cccc(Cl)c1F [Compound 7-xiv, N-(3-Chloro-2-fluorobenzyl)-1-(hydroxy)-1,2,3,6-tetrahydro-4-(methylamino)-2,6-dioxopyrimidine-5-carboxamide] gave an inhibition at 10 µM (HIV-1IIIB; [3]) of 100%, a Cell viability % (CEM-SS cells) of 100% and an IC50 (HIV-1 integrase; read-out: INST IC50) of 110 ± 33 nM.

For CCNc1[nH]c(=O)n(OCc2ccccc2)c(=O)c1C(=O)N(C)Cc1ccc(F)cc1 [Compound 15, 3-(Benzyloxy)-6-(ethylamino)-N-(4-fluorobenzyl)-N-methyl-2,4-dioxo-1,2,3,4-tetrahydropyrimidine-5-carboxamide], the IC50 (HIV-1 integrase; read-out: INST IC50) was 7000 ± 3300 nM.

Work on O=C(NCc1ccc(F)cc1)c1c(Nc2ccc(-c3ccccc3)cc2)[nH]c(=O)n(O)c1=O [Compound 7-iv, N-(4-Fluorobenzyl)-1-(hydroxy)-1,2,3,6-tetrahydro-2,6-dioxo-4-(biphenylamino)pyrimidine-5-carboxamide] yielded an inhibition at 10 µM (HIV-1IIIB; [3]) of 0%, a Cell viability % (CEM-SS cells) of 9.1% and an IC50 (HIV-1 integrase; read-out: INST IC50) greater than 100000 nM.

O=C(NCc1ccccc1)c1c(Nc2ccc(-c3ccccc3)cc2)[nH]c(=O)n(O)c1=O [Compound 7-ii, N-Benzyl-1-(hydroxy)-1,2,3,6-tetrahydro-2,6-dioxo-4-(biphenylamino)pyrimidine-5-carboxamide] gave an inhibition at 10 µM (HIV-1IIIB; [1]) of 0% and a Cell viability % (CEM-SS cells) of 13%.

In the case of CNc1[nH]c(=O)n(O)c(=O)c1C(=O)NCc1cccc(F)c1 [Compound 7-xii, N-(3-Fluorobenzyl)-1-(hydroxy)-1,2,3,6-tetrahydro-4-(methylamino)-2,6-dioxopyrimidine-5-carboxamide], the inhibition at 10 µM (HIV-1IIIB; [3]) is reported as 100%, the Cell viability % (CEM-SS cells) is reported as 95% and the IC50 (HIV-1 integrase; read-out: INST IC50) is reported as 250 ± 48 nM.

Work on CCNc1[nH]c(=O)n(O)c(=O)c1C(=O)NCc1cc(F)cc(F)c1 [Compound 7-xix, N-(3,5-Difluorobenzyl)-1-(hydroxy)-4-(ethylamino)-1,2,3,6-tetrahydro-2,6-dioxopyrimidine-5-carboxamide] yielded an inhibition at 10 µM (HIV-1IIIB; [3]) of 100%, a Cell viability % (CEM-SS cells) of 100% and an IC50 (HIV-1 integrase; read-out: INST IC50) of 230 ± 62 nM.

In the case of CCNc1[nH]c(=O)n(O)c(=O)c1C(=O)NCc1ccc(C)c(F)c1 [Compound 7-xxiv, N-(3-Fluoro-4-methylbenzyl)-1-(hydroxy)-4-(ethylamino)-1,2,3,6-tetrahydro-2,6-dioxopyrimidine-5-carboxamide], the EC50 (HIV-1IIIB; Human immunodeficiency virus 1) is reported as 150 nM, the inhibition at 10 µM (HIV-1IIIB; [3]) is reported as 100% and the Cell viability % (CEM-SS cells) is reported as 100%. It also gave a CC50 (CEM-SS cells) of 20000 nM and an IC50 (HIV-1 integrase; read-out: INST IC50) of 51 ± 13 nM.

Molecule O=C(NCc1ccccc1)c1c(O)n(O)c(=O)[nH]c1=O [Compound 16, N-Benzyl-1,6-dihydroxy-2,4-dioxo-1,2,3,4-tetrahydropyrimidine-5-carboxamide] has an IC50 (HIV-1 integrase; read-out: INST IC50) of 37000 ± 21000 nM.
